Source: ChEMBL document CHEMBL5244269, “Improving metabolic stability and removing aldehyde oxidase liability in a 5-azaquinazoline series of IRAK4 inhibitors” (Bioorg Med Chem, 2020)

Key:
Format in all cases: functional
OCI-Ly10 [1] = experiment: Growth inhibition of human OCILY10 cells at 0.33 uM incubated for 3 days in presence of 0.033 uM acalabrutinib relative to control; settings: OCI-Ly10, 72 h, time 3 day, read-out: GI
OCI-Ly10 [2] = experiment: Growth inhibition of human OCILY10 cells at 3.3 uM incubated for 3 days in presence of 0.033 uM acalabrutinib relative to control; settings: OCI-Ly10, 72 h, time 3 day, read-out: GI
OCI-Ly10 [3] = experiment: Growth inhibition of human OCILY10 cells at 3.3 uM incubated for 3 days in presence of 0.003 uM acalabrutinib relative to control; settings: OCI-Ly10, 72 h, time 3 day, read-out: GI
OCI-Ly10 [4] = experiment: Growth inhibition of human OCILY10 cells at 0.17 uM incubated for 3 days in presence of 0.17 uM acalabrutinib relative to control; settings: OCI-Ly10, 72 h, time 3 day, read-out: GI
OCI-Ly10 [5] = experiment: Growth inhibition of human OCILY10 cells at 0.17 uM incubated for 3 days in presence of 0.017 uM acalabrutinib relative to control; settings: OCI-Ly10, 72 h, time 3 day, read-out: GI
OCI-Ly10 [6] = experiment: Growth inhibition of human OCILY10 cells at 10 uM incubated for 3 days in presence of 0.003 uM acalabrutinib relative to control; settings: OCI-Ly10, 72 h, time 3 day, read-out: GI
OCI-Ly10 [7] = experiment: Growth inhibition of human OCILY10 cells at 0.33 uM incubated for 3 days in presence of 0.017 uM acalabrutinib relative to control; settings: OCI-Ly10, 72 h, time 3 day, read-out: GI
SUD4 [8] = experiment: Growth inhibition of human SU-DHL-4 cells at 3.3 uM incubated for 3 days in presence of 0.003 uM acalabrutinib relative to control; settings: SU-DHL-4, 72 h, time 3 day, read-out: GI
SUD4 [9] = experiment: Growth inhibition of human SU-DHL-4 cells at 0.17 uM incubated for 3 days in presence of 0.17 uM acalabrutinib relative to control; settings: SU-DHL-4, 72 h, time 3 day, read-out: GI
SUD4 [10] = experiment: Growth inhibition of human SU-DHL-4 cells at 10 uM incubated for 3 days in presence of 0.33 uM acalabrutinib relative to control; settings: SU-DHL-4, 72 h, time 3 day, read-out: GI
SUD4 [11] = experiment: Growth inhibition of human SU-DHL-4 cells at 0.33 uM incubated for 3 days in presence of 0.003 uM acalabrutinib relative to control; settings: SU-DHL-4, 72 h, time 3 day, read-out: GI
OCI-Ly10 [12] = experiment: Growth inhibition of human OCILY10 cells at 10 uM incubated for 3 days in presence of 0.017 uM acalabrutinib relative to control; settings: OCI-Ly10, 72 h, time 3 day, read-out: GI
OCI-Ly10 [13] = experiment: Growth inhibition of human OCILY10 cells at 0.33 uM incubated for 3 days in presence of 0.003 uM acalabrutinib relative to control; settings: OCI-Ly10, 72 h, time 3 day, read-out: GI
SUD4 [14] = experiment: Growth inhibition of human SU-DHL-4 cells at 0.33 uM incubated for 3 days in presence of 0.017 uM acalabrutinib relative to control; settings: SU-DHL-4, 72 h, time 3 day, read-out: GI
OCI-Ly10 [15] = experiment: Growth inhibition of human OCILY10 cells at 3.3 uM incubated for 3 days in presence of 0.17 uM acalabrutinib relative to control; settings: OCI-Ly10, 72 h, time 3 day, read-out: GI
SUD4 [16] = experiment: Growth inhibition of human SU-DHL-4 cells at 0.33 uM incubated for 3 days in presence of 0.33 uM acalabrutinib relative to control; settings: SU-DHL-4, 72 h, time 3 day, read-out: GI
SUD4 [17] = experiment: Growth inhibition of human SU-DHL-4 cells at 0.17 uM incubated for 3 days in presence of 0.017 uM acalabrutinib relative to control; settings: SU-DHL-4, 72 h, time 3 day, read-out: GI
SUD4 [18] = experiment: Growth inhibition of human SU-DHL-4 cells at 1.7 uM incubated for 3 days in presence of 0.003 uM acalabrutinib relative to control; settings: SU-DHL-4, 72 h, time 3 day, read-out: GI
OCI-Ly10 [19] = experiment: Growth inhibition of human OCILY10 cells at 1.7 uM incubated for 3 days in presence of 0.17 uM acalabrutinib relative to control; settings: OCI-Ly10, 72 h, time 3 day, read-out: GI
SUD4 [20] = experiment: Growth inhibition of human SU-DHL-4 cells at 10 uM incubated for 3 days in presence of 0.033 uM acalabrutinib relative to control; settings: SU-DHL-4, 72 h, time 3 day, read-out: GI
OCI-Ly10 [21] = experiment: Growth inhibition of human OCILY10 cells at 0.33 uM incubated for 3 days in presence of 0.17 uM acalabrutinib relative to control; settings: OCI-Ly10, 72 h, time 3 day, read-out: GI
OCI-Ly10 [22] = experiment: Growth inhibition of human OCILY10 cells at 1.7 uM incubated for 3 days in presence of 0.003 uM acalabrutinib relative to control; settings: OCI-Ly10, 72 h, time 3 day, read-out: GI
OCI-Ly10 [23] = experiment: Growth inhibition of human OCILY10 cells at 10 uM incubated for 3 days in presence of 0.17 uM acalabrutinib relative to control; settings: OCI-Ly10, 72 h, time 3 day, read-out: GI
OCI-Ly10 [24] = experiment: Growth inhibition of human OCILY10 cells at 0.33 uM incubated for 3 days in presence of 0.33 uM acalabrutinib relative to control; settings: OCI-Ly10, 72 h, time 3 day, read-out: GI
SUD4 [25] = experiment: Growth inhibition of human SU-DHL-4 cells at 3.3 uM incubated for 3 days in presence of 0.33 uM acalabrutinib relative to control; settings: SU-DHL-4, 72 h, time 3 day, read-out: GI
SUD4 [26] = experiment: Growth inhibition of human SU-DHL-4 cells at 1.7 uM incubated for 3 days in presence of 0.33 uM acalabrutinib relative to control; settings: SU-DHL-4, 72 h, time 3 day, read-out: GI
OCI-Ly10 [27] = experiment: Growth inhibition of human OCILY10 cells at 0.17 uM incubated for 3 days in presence of 0.33 uM acalabrutinib relative to control; settings: OCI-Ly10, 72 h, time 3 day, read-out: GI
SUD4 [28] = experiment: Growth inhibition of human SU-DHL-4 cells at 1.7 uM incubated for 3 days in presence of 0.017 uM acalabrutinib relative to control; settings: SU-DHL-4, 72 h, time 3 day, read-out: GI
SUD4 [29] = experiment: Growth inhibition of human SU-DHL-4 cells at 0.17 uM incubated for 3 days in presence of 0.003 uM acalabrutinib relative to control; settings: SU-DHL-4, 72 h, time 3 day, read-out: GI
OCI-Ly10 [30] = experiment: Growth inhibition of human OCILY10 cells at 0.17 uM incubated for 3 days in presence of 0.033 uM acalabrutinib relative to control; settings: OCI-Ly10, 72 h, time 3 day, read-out: GI
SUD4 [31] = experiment: Growth inhibition of human SU-DHL-4 cells at 0.17 uM incubated for 3 days in presence of 0.033 uM acalabrutinib relative to control; settings: SU-DHL-4, 72 h, time 3 day, read-out: GI
SUD4 [32] = experiment: Growth inhibition of human SU-DHL-4 cells at 0.33 uM incubated for 3 days in presence of 0.17 uM acalabrutinib relative to control; settings: SU-DHL-4, 72 h, time 3 day, read-out: GI
SUD4 [33] = experiment: Growth inhibition of human SU-DHL-4 cells at 3.3 uM incubated for 3 days in presence of 0.17 uM acalabrutinib relative to control; settings: SU-DHL-4, 72 h, time 3 day, read-out: GI
SUD4 [34] = experiment: Growth inhibition of human SU-DHL-4 cells at 10 uM incubated for 3 days in presence of 0.017 uM acalabrutinib relative to control; settings: SU-DHL-4, 72 h, time 3 day, read-out: GI
OCI-Ly10 [35] = experiment: Growth inhibition of human OCILY10 cells at 3.3 uM incubated for 3 days in presence of 0.33 uM acalabrutinib relative to control; settings: OCI-Ly10, 72 h, time 3 day, read-out: GI
OCI-Ly10 [36] = experiment: Growth inhibition of human OCILY10 cells at 1.7 uM incubated for 3 days in presence of 0.033 uM acalabrutinib relative to control; settings: OCI-Ly10, 72 h, time 3 day, read-out: GI
SUD4 [37] = experiment: Growth inhibition of human SU-DHL-4 cells at 10 uM incubated for 3 days in presence of 0.17 uM acalabrutinib relative to control; settings: SU-DHL-4, 72 h, time 3 day, read-out: GI
OCI-Ly10 [38] = experiment: Growth inhibition of human OCILY10 cells at 0.17 uM incubated for 3 days in presence of 0.003 uM acalabrutinib relative to control; settings: OCI-Ly10, 72 h, time 3 day, read-out: GI
SUD4 [39] = experiment: Growth inhibition of human SU-DHL-4 cells at 10 uM incubated for 3 days in presence of 0.003 uM acalabrutinib relative to control; settings: SU-DHL-4, 72 h, time 3 day, read-out: GI
OCI-Ly10 [40] = experiment: Growth inhibition of human OCILY10 cells at 10 uM incubated for 3 days in presence of 0.033 uM acalabrutinib relative to control; settings: OCI-Ly10, 72 h, time 3 day, read-out: GI
SUD4 [41] = experiment: Growth inhibition of human SU-DHL-4 cells at 1.7 uM incubated for 3 days in presence of 0.033 uM acalabrutinib relative to control; settings: SU-DHL-4, 72 h, time 3 day, read-out: GI

Cc1ncc(-c2nc3c(OC4(C)CC4)nc(Nc4cnn(C5CCN(C)CC5)c4)nc3cc2F)cn1
inhibition of growth at 0.33 µM (OCI-Ly10 [1]): 155%
inhibition of growth at 3.3 µM (OCI-Ly10 [2]): 194%
inhibition of growth at 3.3 µM (OCI-Ly10 [3]): 156%
inhibition of growth at 0.17 µM (OCI-Ly10 [4]): 147%
inhibition of growth at 0.17 µM (OCI-Ly10 [5]): 92%
inhibition of growth at 10 µM (OCI-Ly10 [6]): 195%
inhibition of growth at 0.33 µM (OCI-Ly10 [7]): 122%
inhibition of growth at 3.3 µM (SUD4 [8]): -1%
inhibition of growth at 0.17 µM (SUD4 [9]): -3%
inhibition of growth at 10 µM (SUD4 [10]): 0%
inhibition of growth at 0.33 µM (SUD4 [11]): 0%
inhibition of growth at 10 µM (OCI-Ly10 [12]): 198%
inhibition of growth at 0.33 µM (OCI-Ly10 [13]): 33%
inhibition of growth at 0.33 µM (SUD4 [14]): 1%
inhibition of growth at 3.3 µM (OCI-Ly10 [15]): 194%
inhibition of growth at 0.33 µM (SUD4 [16]): -1%
inhibition of growth at 0.17 µM (SUD4 [17]): 0%
inhibition of growth at 1.7 µM (SUD4 [18]): -1%
inhibition of growth at 1.7 µM (OCI-Ly10 [19]): 190%
inhibition of growth at 10 µM (SUD4 [20]): -2%
inhibition of growth at 0.33 µM (OCI-Ly10 [21]): 169%
inhibition of growth at 1.7 µM (OCI-Ly10 [22]): 93%
inhibition of growth at 10 µM (OCI-Ly10 [23]): 199%
inhibition of growth at 0.33 µM (OCI-Ly10 [24]): 172%
inhibition of growth at 3.3 µM (SUD4 [25]): -2%
inhibition of growth at 1.7 µM (SUD4 [26]): -2%
inhibition of growth at 0.17 µM (OCI-Ly10 [27]): 138%
inhibition of growth at 1.7 µM (SUD4 [28]): 0%
inhibition of growth at 0.17 µM (SUD4 [29]): -1%
inhibition of growth at 0.17 µM (OCI-Ly10 [30]): 117%
inhibition of growth at 0.17 µM (SUD4 [31]): -4%
inhibition of growth at 0.33 µM (SUD4 [32]): -2%
inhibition of growth at 3.3 µM (SUD4 [33]): -3%
inhibition of growth at 10 µM (SUD4 [34]): 2%
inhibition of growth at 3.3 µM (OCI-Ly10 [35]): 194%
inhibition of growth at 1.7 µM (OCI-Ly10 [36]): 193%
inhibition of growth at 10 µM (SUD4 [37]): -1%
inhibition of growth at 0.17 µM (OCI-Ly10 [38]): 24%
inhibition of growth at 10 µM (SUD4 [39]): 1%
inhibition of growth at 10 µM (OCI-Ly10 [40]): 197%
inhibition of growth at 1.7 µM (SUD4 [41]): -4%
